Laboratory results published in the supplement of paper PMC10307832.

How the values were obtained:
Test in all cases: relative viability (nuclei count vs DMSO), 5 days (fraction); higher = more cells survive
[1] = tested on: PC-14
Outline: (§1)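 One day after seeding in 1536-well plates, lung cancer cell lines were dosed by pin tool. Dosing was either single-drug or a fixed anchor-drug dose plus five library-drug doses (not always all listed) in √10 steps. After 5 days, nuclei were stained in one fix-and-stain step and counted on 4× images, and relative viability is the nuclei count of treated wells over that of vehicle wells, given as the median of duplicate plates.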

[2] = tested on: EMC-BAC-2
Outline: as §1

[3] = tested on: 201T
Outline: as §1

[4] = tested on: NCI-H596
Outline: as §1

[5] = tested on: NCI-H322M
Outline: as §1

[6] = tested on: NCI-H2087
Outline: as §1

[7] = tested on: H3255
Outline: as §1

[8] = tested on: NCI-H2170
Outline: as §1

[9] = tested on: NCI-H2126
Outline: as §1

[10] = tested on: SK-MES-1
Outline: as §1

[11] = tested on: NCI-H441
Outline: as §1

[12] = tested on: LXF-289
Outline: as §1

[13] = tested on: NCI-H1651
Outline: as §1

[14] = tested on: NCI-H2009
Outline: as §1

[15] = tested on: NCI-H647
Outline: as §1

[16] = tested on: CAL-12T
Outline: as §1

[17] = tested on: ChaGo-K-1
Outline: as §1

[18] = tested on: NCI-H3122
Outline: as §1

[19] = tested on: NCI-H1755
Outline: as §1

[20] = tested on: HOP-62
Outline: as §1

[21] = tested on: LK-2
Outline: as §1

[22] = tested on: NCI-H1734
Outline: as §1

Work on `O=C(O)CCCCC(CCSCc1ccccc1)SCc1ccccc1` (stereo not given) [CPI-613] + CC1(C)CCC(c2ccc(Cl)cc2)=C(CN2CCN(c3ccc(C(=O)NS(=O)(=O)c4ccc(N[C@H](CCN5CCOCC5)CSc5ccccc5)c(S(=O)(=O)C(F)(F)F)c4)cc3)CC2)C1 [Navitoclax] (partner 0.5 µM) yielded a relative viability ([1]; first compound 5 µM) of 1, a relative viability ([1]; first compound 15.81 µM) of 1.05 and a relative viability ([1]; first compound 50 µM) of 1. For the same compound, the relative viability ([1]; first compound 158.11 µM) was 0.869, the relative viability ([1]; first compound 500 µM) was 1.16 and the relative viability ([2]; first compound 5 µM) was 1.15. For the same compound, the relative viability ([2]; first compound 15.81 µM) was 1.13, the relative viability ([2]; first compound 50 µM) was 1.15 and the relative viability ([2]; first compound 158.11 µM) was 1.01. The relative viability ([2]; first compound 500 µM) was 1.06, the relative viability ([3]; first compound 5 µM) was 1.23 and the relative viability ([3]; first compound 15.81 µM) was 1.2. It also gave a relative viability ([3]; first compound 50 µM) of 1.17, a relative viability ([3]; first compound 158.11 µM) of 1.14 and a relative viability ([3]; first compound 500 µM) of 1.09. It also gave a relative viability ([4]; first compound 5 µM) of 1.01, a relative viability ([4]; first compound 15.81 µM) of 0.925 and a relative viability ([4]; first compound 50 µM) of 1.11. The relative viability ([4]; first compound 158.11 µM) was 0.362, the relative viability ([4]; first compound 500 µM) was 0.0344 and the relative viability ([5]; first compound 5 µM) was 1.21. It also gave a relative viability ([5]; first compound 15.81 µM) of 1.17, a relative viability ([5]; first compound 50 µM) of 1.27 and a relative viability ([5]; first compound 158.11 µM) of 1.05. For the same compound, the relative viability ([5]; first compound 500 µM) was 0.982, the relative viability ([6]; first compound 5 µM) was 1.03 and the relative viability ([6]; first compound 15.81 µM) was 0.953. It also gave a relative viability ([6]; first compound 50 µM) of 0.926, a relative viability ([6]; first compound 158.11 µM) of 0.135 and a relative viability ([6]; first compound 500 µM) of 0.0127. For the same compound, the relative viability ([7]; first compound 5 µM) was 0.497, the relative viability ([7]; first compound 15.81 µM) was 0.476 and the relative viability ([7]; first compound 50 µM) was 0.337. For the same compound, the relative viability ([7]; first compound 158.11 µM) was 0.498, the relative viability ([7]; first compound 500 µM) was 0.562 and the relative viability ([8]; first compound 5 µM) was 0.6. It also gave a relative viability ([8]; first compound 15.81 µM) of 0.573, a relative viability ([8]; first compound 50 µM) of 0.593 and a relative viability ([8]; first compound 158.11 µM) of 0.396. The relative viability ([8]; first compound 500 µM) was 0.0998, the relative viability ([9]; first compound 5 µM) was 0.9 and the relative viability ([9]; first compound 15.81 µM) was 0.805. It also gave a relative viability ([9]; first compound 50 µM) of 0.815, a relative viability ([9]; first compound 158.11 µM) of 0.662 and a relative viability ([9]; first compound 500 µM) of 0.645. For the same compound, the relative viability ([10]; first compound 5 µM) was 1.08, the relative viability ([10]; first compound 15.81 µM) was 1.17 and the relative viability ([10]; first compound 50 µM) was 1.1. The relative viability ([10]; first compound 158.11 µM) was 1.03, the relative viability ([10]; first compound 500 µM) was 1 and the relative viability ([11]; first compound 5 µM) was 0.564. For the same compound, the relative viability ([11]; first compound 15.81 µM) was 0.805, the relative viability ([11]; first compound 50 µM) was 0.731 and the relative viability ([11]; first compound 158.11 µM) was 0.186. The relative viability ([11]; first compound 500 µM) was 0.0161, the relative viability ([12]; first compound 5 µM) was 0.898 and the relative viability ([12]; first compound 15.81 µM) was 0.894. It also gave a relative viability ([12]; first compound 50 µM) of 0.905, a relative viability ([12]; first compound 158.11 µM) of 0.157 and a relative viability ([12]; first compound 500 µM) of 0.0115. For the same compound, the relative viability ([13]; first compound 5 µM) was 1.04, the relative viability ([13]; first compound 15.81 µM) was 0.866 and the relative viability ([13]; first compound 50 µM) was 1. For the same compound, the relative viability ([13]; first compound 158.11 µM) was 0.17, the relative viability ([13]; first compound 500 µM) was 0.152 and the relative viability ([14]; first compound 5 µM) was 1.18. For the same compound, the relative viability ([14]; first compound 15.81 µM) was 1.08, the relative viability ([14]; first compound 50 µM) was 1.11 and the relative viability ([14]; first compound 158.11 µM) was 0.264. It also gave a relative viability ([14]; first compound 500 µM) of 0.0303, a relative viability ([15]; first compound 5 µM) of 1.05 and a relative viability ([15]; first compound 15.81 µM) of 1.11. The relative viability ([15]; first compound 50 µM) was 0.963, the relative viability ([15]; first compound 158.11 µM) was 0.875 and the relative viability ([15]; first compound 500 µM) was 0.238. The relative viability ([16]; first compound 5 µM) was 1.17, the relative viability ([16]; first compound 15.81 µM) was 0.967 and the relative viability ([16]; first compound 50 µM) was 0.965. It also gave a relative viability ([16]; first compound 158.11 µM) of 0.0606, a relative viability ([16]; first compound 500 µM) of 0.0373 and a relative viability ([17]; first compound 5 µM) of 0.671. It also gave a relative viability ([17]; first compound 15.81 µM) of 0.982, a relative viability ([17]; first compound 50 µM) of 0.935 and a relative viability ([17]; first compound 158.11 µM) of 0.882. For the same compound, the relative viability ([17]; first compound 500 µM) was 0.643, the relative viability ([18]; first compound 5 µM) was 0.992 and the relative viability ([18]; first compound 15.81 µM) was 1.06. For the same compound, the relative viability ([18]; first compound 50 µM) was 0.988, the relative viability ([18]; first compound 158.11 µM) was 0.571 and the relative viability ([18]; first compound 500 µM) was 0.0262. It also gave a relative viability ([19]; first compound 5 µM) of 0.945, a relative viability ([19]; first compound 15.81 µM) of 0.934 and a relative viability ([19]; first compound 50 µM) of 0.935. It also gave a relative viability ([19]; first compound 158.11 µM) of 0.831, a relative viability ([19]; first compound 500 µM) of 0.161 and a relative viability ([20]; first compound 5 µM) of 0.927. For the same compound, the relative viability ([20]; first compound 15.81 µM) was 0.992, the relative viability ([20]; first compound 50 µM) was 0.978 and the relative viability ([20]; first compound 158.11 µM) was 0.984. It also gave a relative viability ([20]; first compound 500 µM) of 0.911, a relative viability ([21]; first compound 5 µM) of 0.957 and a relative viability ([21]; first compound 15.81 µM) of 0.922. The relative viability ([21]; first compound 50 µM) was 1.05, the relative viability ([21]; first compound 158.11 µM) was 0.966 and the relative viability ([21]; first compound 500 µM) was 0.87. The relative viability ([22]; first compound 5 µM) was 0.776, the relative viability ([22]; first compound 15.81 µM) was 0.677 and the relative viability ([22]; first compound 50 µM) was 0.75. For the same compound, the relative viability ([22]; first compound 158.11 µM) was 0.545 and the relative viability ([22]; first compound 500 µM) was 0.117.
